The test system of one data set is A549. The experiment in a line: Antiproliferative activity against human A549 cells after 72 hrs by CellTiter Glo assay. The class given is functional, cell-based. The following applies: A549, 72 h.
The subject of another data set is MCF7. The experiment in a line: Antiproliferative activity against human MCF7 cells after 72 hrs by CellTiter Glo assay. The class given is functional, cell-based. The note with it: MCF7, 72 h.
In data set [1] the test system is HT-29. The data set is described as follows: Antiproliferative activity against human HT-29 cells after 72 hrs by CellTiter Glo assay. The following applies: HT-29, 72 h. The class given is functional, cell-based.
For data set [2], the system named is HT-29. The data set is described as follows: Induction of mitochondrial dysfunction in human HT-29 cells at 2 nM measured after 48 hrs by JC-1 staining based flow cytometry. It counts as functional, cell-based. (In flow cytometry, cells or beads pass a laser one at a time.)
Data set [3] has as its target T1, Protein deacetylase HDAC6 (Homo sapiens, UniProt Q9UBN7).
T1 sequence (Q9UBN7 whole entry): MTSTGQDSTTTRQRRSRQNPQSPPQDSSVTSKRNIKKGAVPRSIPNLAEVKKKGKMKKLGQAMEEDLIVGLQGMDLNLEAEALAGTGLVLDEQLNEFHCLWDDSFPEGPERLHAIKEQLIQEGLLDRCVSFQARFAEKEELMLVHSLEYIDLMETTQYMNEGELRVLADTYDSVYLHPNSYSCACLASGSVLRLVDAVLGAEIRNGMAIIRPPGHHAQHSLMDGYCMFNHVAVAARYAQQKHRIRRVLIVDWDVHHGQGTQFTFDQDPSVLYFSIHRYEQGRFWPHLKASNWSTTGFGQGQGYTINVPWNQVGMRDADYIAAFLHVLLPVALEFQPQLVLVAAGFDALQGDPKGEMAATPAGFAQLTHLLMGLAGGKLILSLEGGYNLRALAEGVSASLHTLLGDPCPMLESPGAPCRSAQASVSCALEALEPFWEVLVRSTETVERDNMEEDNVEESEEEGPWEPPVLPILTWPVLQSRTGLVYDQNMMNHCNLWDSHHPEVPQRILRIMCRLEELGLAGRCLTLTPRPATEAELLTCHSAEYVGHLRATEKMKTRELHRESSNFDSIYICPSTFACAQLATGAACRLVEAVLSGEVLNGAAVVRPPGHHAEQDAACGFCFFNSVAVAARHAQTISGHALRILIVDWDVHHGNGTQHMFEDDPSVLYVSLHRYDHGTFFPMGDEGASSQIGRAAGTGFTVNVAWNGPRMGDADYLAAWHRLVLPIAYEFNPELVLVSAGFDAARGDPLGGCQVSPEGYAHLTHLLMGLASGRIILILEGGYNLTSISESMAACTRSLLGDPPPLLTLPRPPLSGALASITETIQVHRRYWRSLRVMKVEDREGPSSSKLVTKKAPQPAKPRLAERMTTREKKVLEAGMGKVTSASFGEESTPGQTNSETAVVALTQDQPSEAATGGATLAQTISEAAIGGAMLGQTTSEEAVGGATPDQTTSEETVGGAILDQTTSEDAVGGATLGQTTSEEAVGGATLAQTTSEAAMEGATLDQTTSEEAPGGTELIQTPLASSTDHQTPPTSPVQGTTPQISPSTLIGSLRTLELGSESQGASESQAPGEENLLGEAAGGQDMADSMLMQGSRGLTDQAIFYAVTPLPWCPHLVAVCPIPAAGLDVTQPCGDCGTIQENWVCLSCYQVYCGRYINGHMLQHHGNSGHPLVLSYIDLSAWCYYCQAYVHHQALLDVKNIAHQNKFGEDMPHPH
The experiment in a line: Inhibition of HDAC6 (unknown origin) measured by fluorometry assay.

The next data set concerns the target T2, Histone deacetylase 8 (Homo sapiens, UniProt Q9BY41).
T2 sequence (Q9BY41 whole entry): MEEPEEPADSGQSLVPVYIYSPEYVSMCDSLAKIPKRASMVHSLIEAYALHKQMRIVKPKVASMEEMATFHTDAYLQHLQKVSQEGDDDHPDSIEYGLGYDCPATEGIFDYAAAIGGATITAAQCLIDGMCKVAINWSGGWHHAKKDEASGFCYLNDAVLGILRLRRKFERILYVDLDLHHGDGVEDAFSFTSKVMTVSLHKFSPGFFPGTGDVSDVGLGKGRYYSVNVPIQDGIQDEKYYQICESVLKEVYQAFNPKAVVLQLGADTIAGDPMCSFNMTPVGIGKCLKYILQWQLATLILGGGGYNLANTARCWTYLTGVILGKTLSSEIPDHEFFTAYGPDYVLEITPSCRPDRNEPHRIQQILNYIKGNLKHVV
The experiment in a line: Inhibition of HDAC8 (unknown origin) measured by fluorometry assay.

Data set [4] has as its system HT-29. The data set is described as follows: Induction of DNA damage in human HT-29 cells at 0.5 to 10 nM assessed as increase in gamma-H2AX level and measured after 24 hrs by Western blot analysis. The following applies: dose 0.5-10 nM. It counts as functional, cell-based.
Data set [5] concerns the target T3, Tubulin (Homo sapiens) (UniProt P68371+Q9H4B7+P0DPH7+P68366+Q13509+Q71U36+P04350+Q3ZCM7+P07437+P68363+Q9BQE3+Q6PEY2+Q13885+Q9BVA1+Q9BUF5). The data set is described as follows: Inhibition of tubulin polymerization (unknown origin) at 10 uM in presence of GTP. It counts as protein-complex assay.
The target of data set [6] is T3, Tubulin (Homo sapiens). The data set is described as follows: Inhibition of tubulin polymerization in human HeLa cells assessed as microtubule network polymerization at 250 nM after 30 mins by immunofluorescence analysis. It counts as cell-based.
In another data set the target is Tubulin. The experiment in a line: Inhibition of tubulin polymerization in human HeLa cells assessed as microtubule network polymerization after 30 mins by immunofluorescence analysis. The class given is cell-based.
The nature of data set [7]: Metabolic stability in rat liver microsomes assessed as half-life measured upto 6 hrs in presence of NADPH generating system by HPLC-MS/MS analysis. The class given is ADME, Microsome. On the technique in general: Microsomes from liver hold many membrane-bound enzymes, among them those of drug oxidation.
The nature of data set [8]: Metabolic stability in rat liver microsomes assessed as intrinsic clearance per mg protein measured upto 6 hrs in presence of NADPH generating system by HPLC-MS/MS analysis. The following applies: read-out: CLH. The class given is ADME, Microsome.
Data set [9] is described as follows: Metabolic stability in human liver microsomes assessed as half-life measured upto 6 hrs in presence of NADPH generating system by HPLC-MS/MS analysis. It counts as ADME, Microsome.
Data set [10] in a line: Antiproliferative activity against mouse MCA-205 cells after 72 hrs by CellTiter Glo assay. It counts as functional, cell-based. The following applies: MCA-205, 72 h. For orientation: Cellular ATP, detected with luciferase, serves as a proxy for viable cell number.
Data set [11] can be described thus: Antitumor activity against mouse MCA-205 cells allografted in female C57BL/6 mouse assessed as decrease in tumor growth at 0.25 to 0.5 mg/kg, IT(Intratumoral). The class given is functional. Also on record: scale not given: the % may be the effect or the level left. The note with it: dose lower […], dose upper 0.5 mg/kg.
Data set [12] is described as follows: Toxicity in C57BL/6 mouse allografted with mouse MCA-205 cells assessed as effect on body weight at 0.1 to 0.5 mg/kg, IT(Intratumoral). It counts as organism-based. The following applies: in vivo, other, dose 0.1-0.5 mg/kg.
The nature of data set [13]: Antitumor activity against mouse MCA-205 cells allografted in female C57BL/6 mouse assessed as increase in overall survival at 0.25 to 0.5 mg/kg, IT(Intratumoral). It counts as functional. The note with it: dose lower […], dose upper 0.5 mg/kg.

Usually IC50 stands for the midpoint of a concentration-inhibition curve. In general, half-life refers to the time in which the quantity being followed falls by half.

Structures are written as SMILES. Active and inactive are the calls of the source. The rule behind the calls is not given here.

Regarding `COc1ccc(N(C)c2cc(C#N)nc3ccccc23)cc1/C=C/C(=O)NO`, the IC50 was determined as 0.84 nM in the data set on A549; 0.78 nM in the data set with MCF7; 0.62 nM with HT-29 [1]; 1000 nM in data set [3]; 150 nM against Histone deacetylase 8; 20 nM on Tubulin. This compound also displayed an IC50 in [10] of 2.78 nM. The result in the data set with HT-29 [2] and in the data set on HT-29 [4] was Active. For the same compound, the inhibition entry at Tubulin (Homo sapiens) [5] and at Tubulin (Homo sapiens) [6] was “Active” throughout. The half-life in [7] was 396 min; in [9], 1920 min. In data set [8], the microsomal CLint was determined as 1.75 µL/min/mg. Moreover, the figures for the Activity in data set [11], in [12] and in [13] were 70%, “Non-Toxic” and 60%, respectively.

The record behind these values is ChEMBL document CHEMBL5113481, “Design, synthesis and biological evaluation of quinoline-2-carbonitrile-based hydroxamic acids as dual tubulin polymerization and histone deacetylases inhibitors” (Eur J Med Chem, 2022).
